Entries after “also recorded” stand apart in the source; their conditions may differ. Like-named read-outs stand apart in the source and are kept apart here.
Columns and labels:
[1] = target: BIRC2 (Homo sapiens, UniProt Q13490); experiment: NanoBRET cellular target engagement, full-length BIRC2
Procedure: (§1) In brief: Constructs contained the cDNA of full-length or single domains cloned in frame with an N-terminal NanoLuc-fusion as specified in Supplementary Table S2. Plasmids were transfected into HEK293T cells using FuGENE HD (Promega, E2312) and proteins were allowed to express for 20 h. […] The corresponding transfected cells were added and reseeded at a density of 2.5^5 cells/mL after trypsinization and resuspending in Opti-MEM without phenol red (Life Technologies). […] Competitive displacement data were then graphed using GraphPad Prism 9.3 software using a normalized 3-parameter curve fit with the following equation: Y = 100/(1 + 10^(X-LogIC50)).

[2] = target: BIRC3 (Homo sapiens, UniProt Q13489); experiment: NanoBRET cellular target engagement, full-length BIRC3
Procedure: as §1

[3] = target: T1, BIRC7 (Homo sapiens, UniProt Q96CA5); experiment: NanoBRET cellular target engagement, full-length BIRC7
T1 sequence (Q96CA5 1-298): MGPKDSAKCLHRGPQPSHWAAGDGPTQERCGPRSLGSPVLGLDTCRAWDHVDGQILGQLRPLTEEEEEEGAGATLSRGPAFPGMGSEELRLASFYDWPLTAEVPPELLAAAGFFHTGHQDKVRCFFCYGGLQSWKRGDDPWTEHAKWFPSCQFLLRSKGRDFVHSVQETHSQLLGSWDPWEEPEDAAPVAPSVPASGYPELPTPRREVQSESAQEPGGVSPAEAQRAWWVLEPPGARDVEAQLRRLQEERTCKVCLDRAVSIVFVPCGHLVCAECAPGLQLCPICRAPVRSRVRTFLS
Procedure: as §1

[4] = target: T2, BIRC8 (Homo sapiens, UniProt Q96P09); experiment: NanoBRET cellular target engagement, full-length BIRC8
T2 sequence (Q96P09 1-236): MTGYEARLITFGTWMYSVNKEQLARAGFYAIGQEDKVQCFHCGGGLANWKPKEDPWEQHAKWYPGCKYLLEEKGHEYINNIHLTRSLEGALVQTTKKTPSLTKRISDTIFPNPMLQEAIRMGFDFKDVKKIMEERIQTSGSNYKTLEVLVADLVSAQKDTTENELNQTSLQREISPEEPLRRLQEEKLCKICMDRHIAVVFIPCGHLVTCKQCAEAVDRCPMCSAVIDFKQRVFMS
Procedure: as §1

[5] = target: T3, BIRC7 BIR (Homo sapiens, UniProt Q96CA5); experiment: NanoBRET cellular target engagement, single domain BIRC7 BIR
T3 sequence (Q96CA5 70-176): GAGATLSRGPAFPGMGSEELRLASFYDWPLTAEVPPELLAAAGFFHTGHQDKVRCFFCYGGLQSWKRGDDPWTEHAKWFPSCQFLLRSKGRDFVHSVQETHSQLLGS
Procedure: as §1

[6] = target: T4, BIRC8 BIR (Homo sapiens, UniProt Q96P09); experiment: NanoBRET cellular target engagement, single domain BIRC8 BIR
T4 sequence (Q96P09 1-90): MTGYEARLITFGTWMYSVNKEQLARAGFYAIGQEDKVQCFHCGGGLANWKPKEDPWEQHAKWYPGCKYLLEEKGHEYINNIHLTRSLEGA
Procedure: as §1

[7] = target: BIRC2 BIR2 (Homo sapiens, UniProt Q13490); experiment: NanoBRET cellular target engagement, single domain BIRC2 BIR2
Sequence of BIRC2 BIR2 (Q13490 165-267): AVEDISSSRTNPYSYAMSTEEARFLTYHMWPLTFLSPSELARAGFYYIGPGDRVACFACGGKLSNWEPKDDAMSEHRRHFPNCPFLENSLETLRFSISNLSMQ
Procedure: as §1

[8] = target: BIRC3 BIR2 (Homo sapiens, UniProt Q13489); experiment: NanoBRET cellular target engagement, single domain BIRC3 BIR2
Sequence of BIRC3 BIR2 (Q13489 147-253): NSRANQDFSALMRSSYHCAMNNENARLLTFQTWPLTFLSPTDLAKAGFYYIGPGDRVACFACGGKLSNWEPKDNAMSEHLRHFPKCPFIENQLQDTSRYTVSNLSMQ
Procedure: as §1

[9] = target: BIRC2 BIR3 (Homo sapiens, UniProt Q13490); experiment: NanoBRET cellular target engagement, single domain BIRC2 BIR3
Sequence of BIRC2 BIR3 (Q13490 251-372): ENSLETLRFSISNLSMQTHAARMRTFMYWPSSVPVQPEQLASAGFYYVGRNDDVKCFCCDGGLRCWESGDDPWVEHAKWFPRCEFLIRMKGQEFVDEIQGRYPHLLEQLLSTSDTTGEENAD
Procedure: as §1

[10] = target: BIRC3 BIR3 (Homo sapiens, UniProt Q13489); experiment: NanoBRET cellular target engagement, single domain BIRC3 BIR3
Sequence of BIRC3 BIR3 (Q13489 236-360): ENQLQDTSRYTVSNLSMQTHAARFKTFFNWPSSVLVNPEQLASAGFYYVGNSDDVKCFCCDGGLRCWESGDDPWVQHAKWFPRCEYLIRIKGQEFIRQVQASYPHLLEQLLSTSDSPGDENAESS
Procedure: as §1

[11] = target: T5, BIRC1 BIR[2] (Homo sapiens, UniProt Q13075); experiment: NanoBRET cellular target engagement, single domain BIRC1 BIR[2]
T5 sequence (Q13075 139-251): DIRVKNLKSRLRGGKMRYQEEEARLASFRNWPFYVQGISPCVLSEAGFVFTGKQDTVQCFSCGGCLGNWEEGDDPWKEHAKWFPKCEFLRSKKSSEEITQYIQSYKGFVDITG
Procedure: as §1

[12] = target: T6, BIRC2-BIR3 domain (Homo sapiens, UniProt Q13490); experiment: Fluorescence polarization (FP) competition assay with fluorescent SMAC probe; type: binding; set-up: BIRC2-BIR3 domain (260–352) was expressed; His6 (N, cleaved yes); GST (N, cleaved yes); made in house; host or cells: E. coli; conditions: for Ki: read-out: FP Assay K I Values
T6 sequence (Q13490 260-352): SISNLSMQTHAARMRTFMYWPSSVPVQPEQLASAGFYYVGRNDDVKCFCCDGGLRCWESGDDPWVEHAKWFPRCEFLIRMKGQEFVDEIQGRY
Procedure: Resulting data was plotted using GraphPad Prism 9.3 software and analyzed using a nonlinear fit to calculate the probe IC50. […] Compounds were titrated from 20 μM to 20 nM using an ECHO 550 acoustic dispenser (Labcyte) incubated for 1 h at room temperature and subsequent read out.
The assay is based on the displacement of a fluorescent SMAC mimetic from the binding site.

[13] = target: T6, BIRC2-BIR3 domain; experiment: Isothermal titration calorimetry (ITC); type: binding; set-up: BIRC2-BIR3 domain (260–352) was expressed; His6 (N, cleaved yes); GST (N, cleaved yes); made in house; host or cells: E. coli
Procedure: For this protocol, the chamber was pre-equilibrated with the test compound, and the BIRC2-BIR3 domain was titrated in while continuously measuring the rate of exothermic heat evolution. The heat of binding was integrated, corrected, and fitted to an independent single-binding site model based on the manufacturer’s instructions, from which thermodynamic parameters (ΔH and TΔS), equilibrium association and dissociation constants (K A and K D, respectively), and stoichiometry (n) were calculated.

[14] = target: T6, BIRC2-BIR3 domain; experiment: Differential scanning fluorimetry (DSF); conditions: for ΔTm at 40 µM: read-out: DSF Assay ΔTm; for ΔTm [°C] (Supplementary Table S1): technical replicate; for Mean, ΔTm [°C] (Supplementary Table S1): mean of n=3, difference to DMSO control
Procedure: Purified proteins were buffered in DSF buffer (25 mM HEPES pH 7.5, 500 mM NaCl) and were assayed in a 384-well plate (Thermo, #BC3384) with a final protein concentration of 20 μM in 10 μL final assay volume. Inhibitors were added in excess to a final concentration of 40 μM, using an ECHO 550 acoustic dispenser (Labcyte). As a fluorescent probe, SYPRO-Orange (Molecular Probes) was used at 5x final concentration. […] Data was analyzed using Boltzmann-equation in the Protein Thermal Shift software (Applied Biosystems). Samples were measured in technical triplicates.
The assay was run in the presence of DMSO to exclude DMSO influences towards melting temperature differences when testing small molecules (Figures 2C,D).

[15] = target: BIRC4 (Homo sapiens, UniProt P98170); experiment: NanoBRET cellular target engagement, full-length BIRC4
Sequence of BIRC4 (P98170 whole entry): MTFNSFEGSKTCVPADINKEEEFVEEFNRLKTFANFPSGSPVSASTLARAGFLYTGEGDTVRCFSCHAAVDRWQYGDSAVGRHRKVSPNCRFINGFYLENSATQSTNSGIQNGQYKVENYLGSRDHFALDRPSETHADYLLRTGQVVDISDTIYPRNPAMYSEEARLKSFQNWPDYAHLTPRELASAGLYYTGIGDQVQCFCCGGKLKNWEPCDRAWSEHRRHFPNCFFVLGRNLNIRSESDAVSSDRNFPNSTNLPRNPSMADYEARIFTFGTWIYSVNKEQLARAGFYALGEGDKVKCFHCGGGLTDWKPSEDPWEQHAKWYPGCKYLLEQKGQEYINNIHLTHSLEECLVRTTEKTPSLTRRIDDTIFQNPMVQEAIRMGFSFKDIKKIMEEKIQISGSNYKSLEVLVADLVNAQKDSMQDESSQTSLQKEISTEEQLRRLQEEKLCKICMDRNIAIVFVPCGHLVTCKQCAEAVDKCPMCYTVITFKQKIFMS
Procedure: as §1

[16] = 25°C, duplicates, mean ± SD, read-out: K D Measured in ITC

Sequence of BIRC2 (Q13490 whole entry): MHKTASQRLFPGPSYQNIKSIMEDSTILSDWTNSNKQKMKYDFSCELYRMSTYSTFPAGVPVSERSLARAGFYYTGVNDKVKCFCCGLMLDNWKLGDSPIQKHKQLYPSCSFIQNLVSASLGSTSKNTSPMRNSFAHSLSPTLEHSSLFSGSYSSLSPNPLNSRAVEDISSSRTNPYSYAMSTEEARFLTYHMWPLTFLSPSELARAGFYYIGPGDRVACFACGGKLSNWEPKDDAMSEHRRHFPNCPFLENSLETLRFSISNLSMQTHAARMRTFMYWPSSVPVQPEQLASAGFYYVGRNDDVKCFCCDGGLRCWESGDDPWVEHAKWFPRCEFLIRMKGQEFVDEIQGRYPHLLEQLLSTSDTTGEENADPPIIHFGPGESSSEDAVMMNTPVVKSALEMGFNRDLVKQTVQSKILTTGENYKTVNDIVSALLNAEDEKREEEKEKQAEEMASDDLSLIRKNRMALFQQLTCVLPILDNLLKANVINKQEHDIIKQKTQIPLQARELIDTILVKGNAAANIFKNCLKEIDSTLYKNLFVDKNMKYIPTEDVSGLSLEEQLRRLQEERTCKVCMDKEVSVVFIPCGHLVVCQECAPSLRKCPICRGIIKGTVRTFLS
Sequence of BIRC3 (Q13489 whole entry): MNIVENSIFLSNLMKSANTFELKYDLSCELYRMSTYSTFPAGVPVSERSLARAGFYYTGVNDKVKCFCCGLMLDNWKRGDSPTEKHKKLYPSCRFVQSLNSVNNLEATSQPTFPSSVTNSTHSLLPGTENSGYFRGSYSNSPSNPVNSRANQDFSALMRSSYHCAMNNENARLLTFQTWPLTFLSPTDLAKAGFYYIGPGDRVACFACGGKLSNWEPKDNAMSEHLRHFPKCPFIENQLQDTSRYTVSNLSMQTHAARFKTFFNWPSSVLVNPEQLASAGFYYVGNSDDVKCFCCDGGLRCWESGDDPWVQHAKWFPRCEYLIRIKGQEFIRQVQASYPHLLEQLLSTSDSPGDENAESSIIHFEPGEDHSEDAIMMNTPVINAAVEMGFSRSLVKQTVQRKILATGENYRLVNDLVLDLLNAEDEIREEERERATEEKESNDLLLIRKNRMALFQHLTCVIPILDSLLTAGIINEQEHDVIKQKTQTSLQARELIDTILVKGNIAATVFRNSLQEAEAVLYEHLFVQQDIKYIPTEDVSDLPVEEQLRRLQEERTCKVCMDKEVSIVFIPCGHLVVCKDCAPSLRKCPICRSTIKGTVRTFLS

CN[C@@H](C)C(=O)N[C@H](C(=O)N1CCC[C@H]1C(=O)N[C@@H]1CCCc2ccccc21)C1CCCCC1 [A 410099.1]
EC50 [1]: 4.6 ± 0.2 nM | EC50 [2]: 9.2 ± 1 nM | EC50 [3]: 19.9 ± 2.6 nM | EC50 [4]: 93.9 ± 9.3 nM | EC50 [5]: 17 ± 2.4 nM | EC50 [6]: 108 ± 7.5 nM | EC50 [7]: 333 ± 35.4 nM | EC50 [8]: 681 ± 68 nM | EC50 [9]: 0.4 ± 0.2 nM | gain in potency on single BIR3 domain compared to full-length protein ([9]; NanoBRET, single BIR3 domain vs full-length): about 10 fold | EC50 [10]: 1.5 ± 0.2 nM | EC50 [11]: 1230 ± 325 nM | IC50 ([12]; BIRC2 BIR3 domain, 5 nM probe, 30 nM protein, approximations, read-out: FP assay IC50 (estimated)): 5.4 nM | Ki [12]: 2 ± 1.1 nM | ITC ΔG ([13]; 25°C): -10.04 kcal/mol | ITC ΔH ([13]; 25°C): -8.23 kcal/mol | Kd [13, 16]: 37.5 ± 6.1 nM | Kd ([13]; 25°C, exemplary titration, read-out: ITC KD (Figure 2E,F)): 43.6 nM | ITC stoichiometry n ([13]; exemplary titration, Figure 2E,F): 1.074

CN[C@@H](C)C(=O)N[C@H]1CN(C(=O)CC(C)C)CC[C@H]2CC[C@@H](C(=O)NC(c3ccccc3)c3ccccc3)N2C1=O [AT406]
ΔTm at 40 µM [14]: 11.6 ± 0.2 °C | ΔTm [°C] (Supplementary Table S1) ([14]; first column): 11.8 °C | ΔTm [°C] (Supplementary Table S1) ([14]; second column): 11.8 °C | ΔTm [°C] (Supplementary Table S1) ([14]; third column): 11.4 °C | EC50 [2]: 62 ± 8.5 nM | EC50 [15]: 28.5 ± 5.2 nM | EC50 [3]: 25.1 ± 5.2 nM | EC50 [4]: 69.3 ± 21.1 nM | EC50 [5]: 18 ± 4.5 nM | EC50 [6]: 69.6 ± 0.3 nM | EC50 [8]: 8135 ± 52.3 nM | EC50 [10]: 5.2 ± 1.2 nM | EC50 [11]: 467 ± 21 nM

CC[C@H](NC(=O)[C@H](C)NC)C(=O)N1C[C@@H](O)C[C@H]1Cc1c(-c2[nH]c3cc(F)ccc3c2C[C@@H]2C[C@H](O)CN2C(=O)[C@H](CC)NC(=O)[C@H](C)NC)[nH]c2cc(F)ccc12 [Birinapant]
EC50 [2]: 800 ± 400 nM | EC50 [4]: 2200 ± 1100 nM | EC50 [6]: 3500 ± 100 nM | EC50 [8]: 17400 ± 1700 nM | EC50 [10]: 900 nM | EC50 [11]: 18300 ± 1100 nM

CN[C@@H](C)C(=O)N[C@H](C(=O)N1CCC[C@H]1C(=O)Nc1sc(-c2ncco2)nc1-c1ccccc1)C1CCCCC1 [CUDC-427]
Mean, ΔTm [°C] (Supplementary Table S1) [14]: 10.9 °C | ΔTm at 40 µM [14]: 10.8 ± 0.1 °C | ΔTm [°C] (Supplementary Table S1) ([14]; first column): 10.9 °C | ΔTm [°C] (Supplementary Table S1) ([14]; second column): 10.9 °C | EC50 [1]: 622 ± 232 nM | EC50 [2]: 739 ± 108 nM | EC50 [15]: 190 ± 26.9 nM | EC50 [4]: 218 ± 48.3 nM | EC50 [6]: 272 ± 6.1 nM | EC50 [7]: 15400 ± 8970 nM | EC50 [8]: 14800 ± 636 nM | EC50 [9]: 54.4 ± 1 nM | EC50 [10]: 20 ± 3.1 nM | EC50 [11]: 10100 ± 1230 nM | Ki [12]: 2.9 ± 0.3 nM | Kd [13, 16]: 44.7 ± 11.8 nM

CN[C@@H](C)C(=O)N[C@H](C(=O)N1CCC[C@H]1C(=O)Nc1snnc1-c1ccccc1)C1CCCCC1 [GDC-0152]
EC50 [15]: 15.3 ± 5 nM | EC50 [3]: 35.5 ± 9.4 nM | EC50 [4]: 134 ± 8.4 nM | EC50 [5]: 28.4 ± 2.7 nM | EC50 [6]: 146 ± 3.8 nM | EC50 [11]: 15200 ± 1230 nM

CN[C@@H](C)C(=O)N[C@H](C(=O)N1CCC[C@H]1c1nc(C(=O)c2ccc(F)cc2)cs1)C1CCCCC1 [LCL161]
EC50 [3]: 26.4 ± 5.5 nM | EC50 [4]: 199 ± 21.4 nM | EC50 [5]: 28.5 ± 7 nM | EC50 [6]: 258 ± 42.4 nM | EC50 [11]: 1490 ± 297 nM

Oc1c(CN2CCCC2)cc(COCc2ccccc2)c2cccnc12 [UC-112]
Mean, ΔTm [°C] (Supplementary Table S1) [14]: 0.3 °C | ΔTm [°C] (Supplementary Table S1) ([14]; first column): 0.4 °C | ΔTm [°C] (Supplementary Table S1) ([14]; second column): 0.3 °C | ΔTm [°C] (Supplementary Table S1) ([14]; third column): 0.2 °C | EC50 ([1]; read-out: EC50 ± SEM NanoBRET BIRC2, full-length, HEK293T, n = 4): > 50000 nM | EC50 ([2]; read-out: EC50 ± SEM NanoBRET BIRC3, full-length, HEK293T, n = 4): > 50000 nM | EC50 ([15]; read-out: EC50 ± SEM NanoBRET BIRC4, full-length, HEK293T, n = 4): > 50000 nM | EC50 ([3]; read-out: EC50 ± SEM NanoBRET BIRC7, full-length, HEK293T, n = 4): > 50000 nM | EC50 ([4]; read-out: EC50 ± SEM NanoBRET BIRC8, full-length, HEK293T, n = 4): > 50000 nM | EC50 ([5]; read-out: EC50 ± SEM NanoBRET BIRC7 BIR, single domain, HEK293T, n = 4): > 50000 nM | EC50 ([6]; read-out: EC50 ± SEM NanoBRET BIRC8 BIR, single domain, HEK293T, n = 4): > 50000 nM | EC50 ([7]; read-out: EC50 ± SEM NanoBRET BIRC2 BIR2, single domain, HEK293T, n = 4): > 50000 nM | EC50 ([8]; read-out: EC50 ± SEM NanoBRET BIRC3 BIR2, single domain, HEK293T, n = 4): > 50000 nM | EC50 ([9]; read-out: EC50 ± SEM NanoBRET BIRC2 BIR3, single domain, HEK293T, n = 4): > 50000 nM | EC50 ([10]; read-out: EC50 ± SEM NanoBRET BIRC3 BIR3, single domain, HEK293T, n = 4): > 50000 nM | EC50 ([11]; read-out: EC50 ± SEM NanoBRET BIRC1 BIR[2], single domain, HEK293T, n = 4): > 50000 nM | FP Assay K I Values ([12]; BIRC2 BIR3 domain, Cheng-Prusoff from IC50, mean ± SD, n = 3): binding could not be shown; also recorded: no interaction at all | K D Measured in ITC ([13]; 25°C, duplicates, mean ± SD): no binding
